Source: publication PMC6789174 (Drug Design, Development and Therapy, 2019)
In brackets after ≈: the same amount, converted by molar mass.

What was measured:
[1] = molecular target: T1, porcine α-amylase (Sus scrofa, UniProt P00690); assay: biochemical; details: for inhibition at 125 µg/mL: read-out: %Inhibition (mean ± SEM), alpha amylase, concentration 125 µg/mL; for inhibition at 250 µg/mL: read-out: %Inhibition (mean ± SEM), alpha amylase, concentration 250 µg/mL; for inhibition at 500 µg/mL: read-out: %Inhibition (mean ± SEM), alpha amylase, concentration 500 µg/mL; for inhibition at 1000 µg/mL: read-out: %Inhibition (mean ± SEM), alpha amylase, concentration 1000 µg/mL
T1 sequence (P00690 16-511): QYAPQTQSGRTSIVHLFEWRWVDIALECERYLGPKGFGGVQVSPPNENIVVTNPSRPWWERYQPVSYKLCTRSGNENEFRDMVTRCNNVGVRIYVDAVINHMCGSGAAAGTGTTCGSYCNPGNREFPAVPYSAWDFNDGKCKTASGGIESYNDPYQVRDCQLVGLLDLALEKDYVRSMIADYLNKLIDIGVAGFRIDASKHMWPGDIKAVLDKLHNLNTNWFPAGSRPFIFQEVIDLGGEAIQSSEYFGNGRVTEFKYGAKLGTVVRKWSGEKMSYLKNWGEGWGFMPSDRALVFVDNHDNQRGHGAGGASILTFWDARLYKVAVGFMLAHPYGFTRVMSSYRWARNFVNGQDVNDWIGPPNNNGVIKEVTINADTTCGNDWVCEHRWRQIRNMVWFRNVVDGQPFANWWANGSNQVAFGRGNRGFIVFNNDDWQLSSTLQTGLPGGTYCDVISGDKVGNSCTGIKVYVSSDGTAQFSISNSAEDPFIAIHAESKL

[2] = test system: Staphylococcus aureus; assay: Anti-bacterial activity, agar well diffusion; format: cell-based; details: for MIC: read-out: MIC, Staphylococcus aureus; for zone of inhibition at 10 µg/mL / zone of inhibition at 20 µg/mL / zone of inhibition at 30 µg/mL: read-out: ZI (Zone of inhibition), Staphylococcus aureus
[3] = test system: Proteus vulgaris; assay: Anti-bacterial activity, agar well diffusion; format: cell-based; details: for MIC: read-out: MIC, Proteus vulgaris; for zone of inhibition at 10 µg/mL / zone of inhibition at 20 µg/mL / zone of inhibition at 30 µg/mL: read-out: ZI (Zone of inhibition), Proteus vulgaris
[4] = ABTS free radical scavenging
[5] = DPPH free radical scavenging
[6] = molecular target: Acetylcholinesterase (Homo sapiens, UniProt P22303); assay: biochemical
[7] = molecular target: Butyrylcholinesterase (Homo sapiens, UniProt P06276); assay: Anticholinesterase assay; format: biochemical; details: for inhibition at 125 µg/mL / inhibition at 250 µg/mL / inhibition at 500 µg/mL / inhibition at 1000 µg/mL: read-out: %BChE Inhibition (mean ± SEM)
[8] = test system: Agrobacterium tumefaction; assay: Anti-bacterial activity, agar well diffusion; format: cell-based; details: for MIC: read-out: MIC, Agrobacterium tumefaction; for zone of inhibition at 10 µg/mL / zone of inhibition at 20 µg/mL / zone of inhibition at 30 µg/mL: read-out: ZI (Zone of inhibition), Agrobacterium tumefaction
[9] = molecular target: T2, glucose-6-phosphatase (Homo sapiens, UniProt P35575); assay: Glucose-6-phosphatase activity; format: biochemical; details: for Total Activity of glucose-6-phosphatase: 33°C, pH 6.7, control 72.0
T2 sequence (P35575 1-357): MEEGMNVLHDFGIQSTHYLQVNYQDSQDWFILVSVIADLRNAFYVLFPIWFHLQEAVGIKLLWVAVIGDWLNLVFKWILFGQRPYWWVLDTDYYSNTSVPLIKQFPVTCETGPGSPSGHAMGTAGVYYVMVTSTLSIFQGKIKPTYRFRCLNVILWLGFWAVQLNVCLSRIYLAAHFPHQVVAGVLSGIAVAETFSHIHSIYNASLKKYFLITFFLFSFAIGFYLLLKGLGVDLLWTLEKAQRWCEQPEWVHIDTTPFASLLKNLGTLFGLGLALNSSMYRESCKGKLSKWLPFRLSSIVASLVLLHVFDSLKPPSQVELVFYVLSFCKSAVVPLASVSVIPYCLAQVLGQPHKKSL

[10] = read-out: %AChE Inhibition (mean ± SEM)

Butyrylcholinesterase, sequence (P06276 29-602): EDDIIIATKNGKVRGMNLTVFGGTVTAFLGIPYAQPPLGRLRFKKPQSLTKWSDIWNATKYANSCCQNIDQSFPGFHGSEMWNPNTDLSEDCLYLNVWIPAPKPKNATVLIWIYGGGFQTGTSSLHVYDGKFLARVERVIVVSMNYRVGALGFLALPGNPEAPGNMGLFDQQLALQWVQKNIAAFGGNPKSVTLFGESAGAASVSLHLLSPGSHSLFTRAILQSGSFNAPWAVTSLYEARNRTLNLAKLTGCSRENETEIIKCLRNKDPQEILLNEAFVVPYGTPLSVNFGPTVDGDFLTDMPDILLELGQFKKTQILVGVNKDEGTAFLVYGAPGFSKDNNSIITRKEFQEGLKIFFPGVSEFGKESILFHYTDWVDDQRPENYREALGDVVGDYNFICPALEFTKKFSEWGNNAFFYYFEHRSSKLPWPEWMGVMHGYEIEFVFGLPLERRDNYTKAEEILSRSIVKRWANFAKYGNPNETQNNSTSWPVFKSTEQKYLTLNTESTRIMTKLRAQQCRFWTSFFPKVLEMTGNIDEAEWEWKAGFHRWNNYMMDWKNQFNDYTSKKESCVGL
Acetylcholinesterase, sequence (P22303 32-614, species assumed): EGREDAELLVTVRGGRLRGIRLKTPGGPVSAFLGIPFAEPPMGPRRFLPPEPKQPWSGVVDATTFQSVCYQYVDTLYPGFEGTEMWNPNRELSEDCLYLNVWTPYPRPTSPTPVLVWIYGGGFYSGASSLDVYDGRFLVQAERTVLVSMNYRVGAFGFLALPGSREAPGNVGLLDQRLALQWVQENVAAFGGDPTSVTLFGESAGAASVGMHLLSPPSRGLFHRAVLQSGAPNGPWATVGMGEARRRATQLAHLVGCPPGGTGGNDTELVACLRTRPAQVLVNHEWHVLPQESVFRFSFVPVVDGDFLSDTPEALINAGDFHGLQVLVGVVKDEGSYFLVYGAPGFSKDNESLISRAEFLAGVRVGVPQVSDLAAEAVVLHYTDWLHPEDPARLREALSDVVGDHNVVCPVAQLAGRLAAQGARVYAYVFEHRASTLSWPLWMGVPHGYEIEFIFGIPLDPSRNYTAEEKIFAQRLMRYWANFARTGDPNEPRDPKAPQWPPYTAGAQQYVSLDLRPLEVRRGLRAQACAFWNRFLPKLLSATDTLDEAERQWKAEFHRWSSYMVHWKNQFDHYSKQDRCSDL

S=C(NC(c1ccccn1)C(Cc1ccccc1)Cc1ccccc1)NC(c1ccccn1)C(Cc1ccccc1)Cc1ccccc1 (stereo not drawn) [Compound I, 1,3-bis(2-benzyl-3-phenyl-1-(pyridine-2-yl)propyl)thiourea]
IC50 [1]: 130 µM | inhibition at 125 µg/mL [1]: 60.2 ± 1.03% | inhibition at 250 µg/mL [1]: 63.1 ± 1.41% | inhibition at 500 µg/mL [1]: 68.1 ± 0.87% | inhibition at 1000 µg/mL [1]: 70.29 ± 0.31% | MIC [2]: 19.6 µg/mL (≈ 30.3 µM) | zone of inhibition at 10 µg/mL [2]: 13 mm | zone of inhibition at 20 µg/mL [2]: 16 mm | zone of inhibition at 30 µg/mL [2]: 18 mm | MIC [3]: 9.76 µg/mL (≈ 15.1 µM) | zone of inhibition at 10 µg/mL [3]: 15 mm | zone of inhibition at 20 µg/mL [3]: 22 mm | zone of inhibition at 30 µg/mL [3]: 24 mm | ABTS IC50 [4]: 66 µg/mL | ABTS % I (mean ± S.E.M) ([4]; concentration 125 μg/mL): 77.55 ± 1.93% | ABTS % I (mean ± S.E.M) ([4]; concentration 250 μg/mL): 78.21 ± 1.21% | ABTS % I (mean ± S.E.M) ([4]; concentration 500 μg/mL): 80.16 ± 2.01% | ABTS % I (mean ± S.E.M) ([4]; concentration 1000 μg/mL): 81.67 ± 1.20% | DPPH IC50 [5]: 67 µg/mL | DPPH % I (mean ± S.E.M) ([5]; concentration 125 μg/mL): 78.55 ± 1.73% | DPPH % I (mean ± S.E.M) ([5]; concentration 250 μg/mL): 80.21 ± 1.21% | DPPH % I (mean ± S.E.M) ([5]; concentration 500 μg/mL): 82.16 ± 1.01% | DPPH % I (mean ± S.E.M) ([5]; concentration 1000 μg/mL): 86.67 ± 1.20% | IC50 [6]: 1550 µM | %AChE Inhibition (mean ± SEM) ([6]; concentration 500 μg/mL): 55.59 ± 1.23% | inhibition at 125 µg/mL [6, 10]: 38.6 ± 1.33% | inhibition at 250 µg/mL [6, 10]: 46.1 ± 1.85% | inhibition at 1000 µg/mL [6, 10]: 68.1 ± 1.4% | IC50 [7]: 309 µM | inhibition at 125 µg/mL [7]: 48.1 ± 1.08% | inhibition at 250 µg/mL [7]: 51.4 ± 2.05% | inhibition at 500 µg/mL [7]: 56.3 ± 1.66% | inhibition at 1000 µg/mL [7]: 57.81 ± 0.54% | MIC [8]: 4.02 µg/mL (≈ 6.21 µM) | zone of inhibition at 10 µg/mL [8]: 21 mm | zone of inhibition at 20 µg/mL [8]: 24 mm | zone of inhibition at 30 µg/mL [8]: 26 mm | Total Activity of glucose-6-phosphatase ([9]; concentration 125 µg/mL): 34.11 mg of P released per hour | Total Activity of glucose-6-phosphatase ([9]; concentration 250 µg/mL): 31.62 mg of P released per hour | Total Activity of glucose-6-phosphatase ([9]; concentration 500 µg/mL): 25.31 mg of P released per hour

Fc1ccccc1NC(=S)Nc1ccccc1 [Compound V, 1-(2-fluorophenyl)-3-phenylthiourea]
IC50 [1]: 406 µM | inhibition at 125 µg/mL [1]: 52.1 ± 2.11% | inhibition at 250 µg/mL [1]: 55.91 ± 0.43% | inhibition at 500 µg/mL [1]: 59.5 ± 1.24% | inhibition at 1000 µg/mL [1]: 62.8 ± 1.13% | MIC [2]: 24.1 µg/mL (≈ 97.9 µM) | zone of inhibition at 10 µg/mL [2]: 12 mm | zone of inhibition at 20 µg/mL [2]: 14 mm | zone of inhibition at 30 µg/mL [2]: 16 mm | MIC [3]: 8.94 µg/mL (≈ 36.3 µM) | zone of inhibition at 10 µg/mL [3]: 16 mm | zone of inhibition at 20 µg/mL [3]: 21 mm | zone of inhibition at 30 µg/mL [3]: 24 mm | ABTS IC50 [4]: 85 µg/mL | ABTS % I (mean ± S.E.M) ([4]; concentration 125 μg/mL): 69.45 ± 1.29% | ABTS % I (mean ± S.E.M) ([4]; concentration 250 μg/mL): 71.14 ± 1.90% | ABTS % I (mean ± S.E.M) ([4]; concentration 500 μg/mL): 73.18 ± 1.46% | ABTS % I (mean ± S.E.M) ([4]; concentration 1000 μg/mL): 75.04 ± 0.10% | DPPH IC50 [5]: 70 µg/mL | DPPH % I (mean ± S.E.M) ([5]; concentration 125 μg/mL): 68.83 ± 1.53% | DPPH % I (mean ± S.E.M) ([5]; concentration 250 μg/mL): 70.55 ± 1.27% | DPPH % I (mean ± S.E.M) ([5]; concentration 500 μg/mL): 71.50 ± 1.61% | DPPH % I (mean ± S.E.M) ([5]; concentration 1000 μg/mL): 73.14 ± 1.10% | IC50 [6]: 739 µM | inhibition at 125 µg/mL [6, 10]: 51.8 ± 1.72% | inhibition at 250 µg/mL [6, 10]: 56.3 ± 2.14% | inhibition at 500 µg/mL [6, 10]: 68.2 ± 1.25% | inhibition at 1000 µg/mL [6, 10]: 70.2 ± 1.09% | IC50 [7]: 406 µM | inhibition at 125 µg/mL [7]: 53.07 ± 0.48% | inhibition at 250 µg/mL [7]: 55.1 ± 1.04% | inhibition at 500 µg/mL [7]: 59.1 ± 1.76% | inhibition at 1000 µg/mL [7]: 62.7 ± 1.22% | MIC [8]: 11.6 µg/mL (≈ 47.1 µM) | zone of inhibition at 10 µg/mL [8]: 15 mm | zone of inhibition at 20 µg/mL [8]: 20 mm | zone of inhibition at 30 µg/mL [8]: 25 mm | Glucose-6-phosphatase inhibition, in words ([9]; compared to control experiments): most potent inhibitors | Total Activity of glucose-6-phosphatase ([9]; concentration 125 µg/mL): 05.66 mg of P released per hour | Total Activity of glucose-6-phosphatase ([9]; concentration 250 µg/mL): 05.21 mg of P released per hour | Total Activity of glucose-6-phosphatase ([9]; concentration 500 µg/mL): 04.16 mg of P released per hour

COc1ccc2c3c1O[C@H]1C[C@@H](O)C=C[C@@]31CCN(C)C2 [Galantamine, reference compound]
%BChE Inhibition (mean ± SEM) ([7]; concentration 500 μg/mL): 87.16 ± 1.23% | inhibition at 125 µg/mL [7]: 64.8 ± 0.73% | inhibition at 1000 µg/mL [7]: 92.3 ± 0.74%
